According to patent publication US6737383B1, “Herbicidal oxadiazolidines” (priority 1999, dated 2004):

Assays:
[1] = test system: velvetleaf; test: Test C postemergence velvetleaf; format: in vivo, Abutilon theophrasti; settings: 0 to 100 scale, 0 no effect, 100 complete control
Method: (§1) Compounds evaluated in this test were formulated in a non-phytotoxic solvent mixture which included a surfactant and applied to plants that were grown for various periods of time before treatment (postemergence application). A mixture of sandy loam soil and greenhouse potting mix in a 60:40 ratio was used for the postemergence test.
(§2) Plantings of these crops and weed species were adjusted to produce plants of appropriate size for the postemergence test. All plant species were grown using normal greenhouse practices. Crop and weed species include arrowleaf sida (Sida rhombifolia), barnyardgrass (Echinochloa crus-galli), cocklebur (Xanthium strumarium), common ragweed (Ambrosia elatior), corn (Zea mays), cotton (Gossypium hirsutum), eastern black nightshade (Solanum ptycanthum), fall panicum (Panicum dichotomiflorum), field bindweed (Convolvulus arvensis), giant foxtail (Setaria faberii), hairy beggarticks (Bidens pilosa), ivyleaf morningglory (Ipomoea hederacea), johnsongrass (Sorghum halepense), ladysthumb smartweed (Polygonum persicaria), lambsquarters (Chenopodium album), large crabgrass (Digitaria sanguinalis), purple nutsedge (Cyperus rotundus), redroot pigweed (Amaranthus retroflexus), soybean (Glycine max), surinam grass (Brachiaria decumbens), velvetleaf (Abutilon theophrasti) and wild poinsettia (Euphorbia heterophylla).
(§3) Treated plants and untreated controls were maintained in a greenhouse for approximately 14, to 21 days, after which all treated plants were compared to untreated controls and visually evaluated. Plant response ratings, summarized in Table C, were based upon a 0 to 100 scale where 0 was no effect and 100 was complete control. A dash response (−) means no test result.

[2] = test system: large crabgrass; test: Test C postemergence large crabgrass; format: in vivo, Digitaria sanguinalis; settings: 0 to 100 scale, 0 no effect, 100 complete control
Method: as §1, §2, §3

[3] = test system: hairy beggarticks; test: Test C postemergence hairy beggarticks; format: in vivo, Bidens pilosa; settings: 0 to 100 scale, 0 no effect, 100 complete control
Procedure, shortened: (§4)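 Activity is expressed as percent-style visual control, 0 (no effect) to 100 (complete control), assessed approximately 14 to 21 days after application, relative to untreated plants. Application was postemergence, using a non-phytotoxic solvent formulation with surfactant.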

[4] = test system: johnsongrass; test: Test C postemergence johnsongrass; format: in vivo, Sorghum halepense; settings: 0 to 100 scale, 0 no effect, 100 complete control
Procedure, shortened: as §4

[5] = test system: soybean; test: Test C postemergence soybean; format: in vivo, Glycine max; settings: 0 to 100 scale, 0 no effect, 100 complete control
Method: as §1, §2, §3

[6] = test system: ivyleaf morningglory; test: Test C postemergence ivyleaf morningglory; format: in vivo, Ipomoea hederacea; settings: 0 to 100 scale, 0 no effect, 100 complete control
Method: as §1, §2, §3

[7] = test system: black nightshade; test: Test E black nightshade; format: in vivo, Solanum nigra; settings: Preemergence
[8] = test system: redroot pigweed; test: Test E redroot pigweed; format: in vivo, Amaranthus retroflexus; settings: Postemergence
Method: as §1, with “in the 1- to 4-leaf stage” for “grown for various periods of time before treatment”
(§5) Plantings of these crops and weed species were adjusted to produce plants of appropriate size for the postemergence test. All plant species were grown using normal greenhouse practices. Crop and weed species include annual bluegrass (Poa annua), blackgrass (Alopecurus myosuroides), black nightshade (Solanum nigra), chickweed (Stellaria media), common poppy (Papaver rhoeas), deadnettle (Lamium amplexicaule), downy brome (Bromus tectorum), field violet (Viola arvensis), galium (Galium aparine), green foxtail (Setaria viridis), Italian ryegrass (Lolium multiflorum), jointed goatgrass (Aegilops cylindrica), kochia (Kochia scoparia), lambsquarters (Chenopodium album), littleseed canarygrass (Phalaris minor), rape (Brassica napus), redroot pigweed (Amaranthus retroflexus), Russian thistle (Salsola kali), scentless chamomile (Matricaria inodora), spring barley (Hordeum vulgare), sugar beet (Beta vulgaris), sunflower (Helianthus annuus), ivyleaf speedwell (Veronica hederaefolia), spring wheat (Triticum aestivum), winter wheat (Triticum aestivum), wild buckwheat (Polygonum convolvulus), wild mustard (Sinapis arvensis), wild oat (Avena fatua), windgrass (Apera spica-venti) and winter barley (Hordeum vulgare).
(§6) Treated plants and untreated controls were maintained in a greenhouse for approximately 21 to 28 days, after which all treated plants were compared to untreated controls and visually evaluated. […] A dash response (-) means no test result.

[9] = test system: kochia; test: Test E kochia; format: in vivo, Kochia scoparia; settings: Preemergence
[10] = test system: scentless chamomile; test: Test E scentless chamomile; format: in vivo, Matricaria inodora; settings: Postemergence
Method: as §1, with “in the 1- to 4-leaf stage” for “grown for various periods of time before treatment”
as §5, §6

[11] = test system: lambsquarters; test: Test E lambsquarters; format: in vivo, Chenopodium album; settings: Preemergence
[12] = test system: Russian thistle; test: Test E Russian thistle; format: in vivo, Salsola kali; settings: Postemergence
Method: […] A mixture of sandy loam soil and greenhouse potting mix in a 60:40 ratio was used for the postemergence test.
as §5, §6

[13] = test system: jointed goatgrass; test: Test E jointed goatgrass; format: in vivo, Aegilops cylindrica; settings: Preemergence
[14] = test system: rape; test: Test E rape; format: in vivo, Brassica napus; settings: Preemergence
[15] = test system: downy brome; test: Test E downy brome; format: in vivo, Bromus tectorum; settings: Postemergence; for Plant response rating, Downy brome: 0 to 100 scale
Procedure, shortened: (§7)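 Greenhouse test: for postemergence, foliar application at 1- to 4-leaf stage; compound in non-phytotoxic solvent with surfactant. Rating is visual, relative to untreated controls, about 21 to 28 days after treatment.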

[16] = test system: wild oat; test: Test E wild oat; format: in vivo, Avena fatua; settings: Postemergence
Procedure, shortened: as §7

[17] = test system: annual bluegrass; test: Test E annual bluegrass; format: in vivo, Poa annua; settings: Preemergence
[18] = Rate 125 g/ha, 0 to 100 scale (0 no effect, 100 complete control)
[19] = Rate 500 g/ha, 0 to 100 scale where 0 is no effect and 100 is complete control
[20] = Rate 250 g/ha, 0 to 100 scale (0 no effect, 100 complete control)
[21] = Rate 500 g/ha, 0 to 100 scale, 0 no effect, 100 complete control
[22] = Rate 500 g/ha, 0 no effect, 100 complete control
[23] = Rate 250 g/ha, 0 to 100 scale where 0 is no effect and 100 is complete control

SMILES: CCn1c(=O)on(C(=O)N(c2ccccc2)C(C)C)c1=O [Compound 117]
- Plant response rating, Velvetleaf ([1]; Rate 140 g/ha): 0
- Plant response rating, Velvetleaf ([1]; Rate 560 g/ha): 20
- Plant response rating, Velvetleaf ([1]; Rate 1120 g/ha): 60
- Plant response rating Large crabgrass ([2]; Rate 140 g/ha): 0
- Plant response rating Large crabgrass ([2]; Rate 280 g/ha): 20
- Plant response rating Large crabgrass ([2]; Rate 560 g/ha): 60
- Plant response rating Large crabgrass ([2]; Rate 1120 g/ha): 80
- Plant response rating H. beggarticks ([3]; Rate 1120 g/ha): 0
- Plant response rating Johnsongrass ([4]; Rate 140 g/ha): 10
- Plant response rating Johnsongrass ([4]; Rate 280 g/ha): 35
- Plant response rating Johnsongrass ([4]; Rate 560 g/ha): 40
- Plant response rating Johnsongrass ([4]; Rate 1120 g/ha): 85
- Plant response rating, Soybean ([5]; Rate 140 g/ha): 10
- Plant response rating, Soybean ([5]; Rate 280 g/ha): 35
- Plant response rating, Soybean ([5]; Rate 560 g/ha): 40
- Plant response rating, Soybean ([5]; Rate 1120 g/ha): 60
- Plant response rating I. morningglory ([6]; Rate 140 g/ha): 0
- Plant response rating I. morningglory ([6]; Rate 280 g/ha): 0
- Plant response rating I. morningglory ([6]; Rate 560 g/ha): 0
- Plant response rating I. morningglory ([6]; Rate 1120 g/ha): 0

SMILES: CC(C)N(C(=O)n1oc(=O)n(C(C)C)c1=O)c1ccc(Cl)cc1 [Compound 114]
- Plant response rating, Blk nightshade [7, 18]: 20
- Plant response rating, Blk nightshade ([7]; Rate 250 g/ha, 0 to 100 scale): 60
- Plant response rating, Blk nightshade [7, 19]: 90
- Plant response rating, Redroot pigweed ([8]; Rate 125 g/ha, 0 to 100 scale): 15
- Plant response rating, Redroot pigweed [8, 20]: 10
- Plant response rating, Redroot pigweed [8, 21]: 20
- Plant response rating, Kochia [9, 18]: 25
- Plant response rating, Kochia ([9]; Rate 250 g/ha, 0 to 100 scale): 30
- Plant response rating, Kochia [9, 19]: 30
- Plant response rating, Scentless chamo ([10]; Rate 125 g/ha, 0 to 100 scale): 0
- Plant response rating, Scentless chamo [10, 20]: 0
- Plant response rating, Scentless chamo [10, 21]: 0
- Plant response rating, Lambsquarters [11, 18]: 50
- Plant response rating, Lambsquarters ([11]; Rate 250 g/ha, 0 to 100 scale): 100
- Plant response rating, Lambsquarters [11, 19]: 100
- Plant response rating, Russian thistle ([12]; Rate 125 g/ha, 0 to 100 scale): 0
- Plant response rating, Russian thistle [12, 20]: 0
- Plant response rating, Russian thistle [12, 21]: 0
- Plant response rating, Jointed goatgra [13, 18]: 20
- Plant response rating, Jointed goatgra ([13]; Rate 250 g/ha, 0 to 100 scale): 65
- Plant response rating, Jointed goatgra [13, 19]: 50
- Plant response rating, Rape [14, 18]: 0
- Plant response rating, Rape ([14]; Rate 250 g/ha, 0 to 100 scale): 20
- Plant response rating, Rape [14, 19]: 50
- Plant response rating, Downy brome ([15]; Rate 125 g/ha): 0
- Plant response rating, Downy brortie [15, 20]: 0
- Plant response rating, Downy brome [15, 22]: 30
- Plant response rating, Wild oat ([16]; Rate 125 g/ha, 0 to 100 scale): 0
- Plant response rating, Wild oat [16, 20]: 0
- Plant response rating, Wild oat [16, 21]: 0
- Plant response rating, Annual bluegras [17, 18]: 50
- Plant response rating, Annual bluegras ([17]; Rate 250 g/ha, 0 to 100 scale): 50
- Plant response rating, Annual bluegras [17, 19]: 60

SMILES: CC(C)N(C(=O)n1oc(=O)n(C(C)C)c1=O)c1ccc(F)cc1 [Compound 131]
- Plant response rating, Blk nightshade [7, 18]: 70
- Blk nightshade plant response rating (0 to 100 scale) ([7]; Rate 250 g/ha): 85
- Plant response rating, Blk nightshade [7, 19]: 90
- Plant response rating, Redroot pigweed ([8]; Rate 62 g/ha, 0 to 100 scale): 5
- Plant response rating, Redroot pigweed ([8]; Rate 125 g/ha, 0 to 100 scale): 0
- Plant response rating, Redroot pigweed [8, 21]: 0
- Redroot pigweed plant response rating [8, 23]: 0
- Plant response rating, Kochia [9, 18]: 0
- Kochia plant response rating (0 to 100 scale) ([9]; Rate 250 g/ha): 10
- Plant response rating, Kochia [9, 19]: 100
- Plant response rating, Scentless chamo ([10]; Rate 62 g/ha, 0 to 100 scale): 55
- Plant response rating, Scentless chamo ([10]; Rate 125 g/ha, 0 to 100 scale): 0
- Plant response rating, Scentless chamo [10, 21]: 50
- Scentless chamo plant response rating [10, 23]: 20
- Plant response rating, Velvetleaf ([1]; Rate 140 g/ha): 0
- Plant response rating, Velvetleaf ([1]; Rate 280 g/ha): 0
- Plant response rating, Velvetleaf ([1]; Rate 560 g/ha): 10
- Plant response rating, Velvetleaf ([1]; Rate 1120 g/ha): 70
- Plant response rating, Lambsquarters [11, 18]: 100
- Lambsquarters plant response rating (0 to 100 scale) ([11]; Rate 250 g/ha): 100
- Plant response rating, Lambsquarters [11, 19]: 100
- Plant response rating, Russian thistle ([12]; Rate 62 g/ha, 0 to 100 scale): 10
- Plant response rating, Russian thistle ([12]; Rate 125 g/ha, 0 to 100 scale): 0
- Plant response rating, Russian thistle [12, 21]: 0
- Russian thistle plant response rating [12, 23]: 0
- Plant response rating, Jointed goatgra [13, 18]: 50
- Jointed goatgra plant response rating (0 to 100 scale) ([13]; Rate 250 g/ha): 70
- Plant response rating, Jointed goatgra [13, 19]: 95
- Plant response rating Large crabgrass ([2]; Rate 140 g/ha): 0
- Plant response rating Large crabgrass ([2]; Rate 280 g/ha): 20
- Plant response rating Large crabgrass ([2]; Rate 560 g/ha): 70
- Plant response rating Large crabgrass ([2]; Rate 1120 g/ha): 85
- Plant response rating H. beggarticks ([3]; Rate 140 g/ha): 0
- Plant response rating H. beggarticks ([3]; Rate 560 g/ha): 40
- Plant response rating H. beggarticks ([3]; Rate 1120 g/ha): 70
- Plant response rating Johnsongrass ([4]; Rate 140 g/ha): 15
- Plant response rating Johnsongrass ([4]; Rate 280 g/ha): 40
- Plant response rating Johnsongrass ([4]; Rate 560 g/ha): 60
- Plant response rating Johnsongrass ([4]; Rate 1120 g/ha): 70
- Plant response rating, Rape [14, 18]: 70
- Rape plant response rating (0 to 100 scale) ([14]; Rate 250 g/ha): 75
- Plant response rating, Rape [14, 19]: 90
- Plant response rating, Soybean ([5]; Rate 140 g/ha): 20
- Plant response rating, Soybean ([5]; Rate 280 g/ha): 25
- Plant response rating, Soybean ([5]; Rate 560 g/ha): 30
- Plant response rating, Soybean ([5]; Rate 1120 g/ha): 45
- Plant response rating, Downy brome ([15]; Rate 62 g/ha): 55
- Plant response rating, Downy brome ([15]; Rate 125 g/ha): 0
- Plant response rating, Downy brome [15, 22]: 70
- Downy brome plant response rating [15, 23]: 50
- Plant response rating, Wild oat ([16]; Rate 62 g/ha, 0 to 100 scale): 40
- Plant response rating, Wild oat ([16]; Rate 125 g/ha, 0 to 100 scale): 0
- Plant response rating, Wild oat [16, 21]: 70
- Wild oat plant response rating [16, 23]: 20
- Plant response rating, Annual bluegras [17, 18]: 70
- Annual bluegras plant response rating (0 to 100 scale) ([17]; Rate 250 g/ha): 80
- Plant response rating, Annual bluegras [17, 19]: 100
- Plant response rating I. morningglory ([6]; Rate 140 g/ha): 0
- Plant response rating I. morningglory ([6]; Rate 280 g/ha): 0
- Plant response rating I. morningglory ([6]; Rate 560 g/ha): 20
- Plant response rating I. morningglory ([6]; Rate 1120 g/ha): 50
